Columns and labels:
Assay type in all cases: in vivo
[1] = system: Western Flower Thrips (Frankliniella occidentalis); assay: Western flower thrips glass vial and leaf disc test; conditions: 300 ppm; larvae or adults; 2 DAT
Experimental: Serial dilutions of each technical grade AI were made in pure acetone. 0.5 ml of the treatment solution was deposited into the bottom of a glass vial (scintillation vial). The cap was screwed back onto the vial and inverted for about five seconds. The cap was subsequently removed and the vial laid on its side and rolled constantly, on a hot dog roller, until all the acetone had flashed off and the inner surface of the vial was dry. Cotton leave discs were also dipped simultaneously into the treatment solutions and allowed to dry. After the vials were dried, the leave discs were placed into the vials to serve as a food/water source for the thrips. Each treatment was replicated 5-fold. Western flower thrips were aspirated into the vials, approximately 5 larvae or adults/vial. Following treatment application the vials were held in a holding room under fluorescent light and constant 26° C. Thrips mortality was assessed at 2 DAT (days after treatment), counting all thrips both dead and alive.

[2] = system: Acrobat Ant Workers (Crematogaster sp.); assay: Acrobat ant workers glass vial contact assay; conditions: 100 ppm; 48 h after treatment
Experimental: (§1) If not otherwise specified, the tests were conducted as glass vial contact assays. Glass vials (20 ml scintillation vials) were used. Treatment solutions were mixed with technical grade chemicals diluted in acetone. Treatment solutions needed for the assays included generally 1 and 10 ppm (0.01 and 0.1 μg/cm^2, respectively), but optionally also 100 and/or 1000 ppm for first tier vials. As commercial standard, alphacypermethrin was run at 1 ppm. As solvent control, acetone was used for the assay. Treatment solution was pipetted into the bottom of each vial. Each vial was turned on its side and placed onto a commercial grade hot dog roller without applying heat. The uncapped vials were allowed to roll to allow for the acetone treatment to vent off. After drying, the vials were placed into the compartmented vial shipping boxes. The workstation was prepared by chilling the table and plastic Petri dishes with the inside wall coated with Fluon. A weigh boat of 10% sugar water saturated cotton dental pellets was also prepared. The animal pests were collected into a tube with a rechargeable insect vacuum. The tube of animal pests was placed in a laboratory refrigerator until the animal pests were incapacitated. The animal pests were emptied into chilled Petri dish. A small cotton dental pellet was soaked in water or in 10 wt % sugar water, whereas the excess solution was gently squeezed out. […]

[3] = system: Brown Dog Tick Adults (Rhipicephalus sanguineus); assay: Brown dog tick adults glass vial contact assay; conditions: 100 ppm; 3 DAT (days after treatment)
Experimental: as §1, with “incapacitated.” for “incapacitated. The animal pests were emptied into chilled Petri dish. A small cotton dental pellet was soaked in water or in 10 wt % sugar water, whereas the excess solution was gently squeezed out.”
Treatment solutions were mixed with test compound diluted in acetone at concentrations of 10 and 100 ppm. […] Ticks were evaluated by rolling the vials on a preheated hotdog roller. […]

Measured: mortality in comparison with untreated controls

Cc1cc(C2=NOC(c3cc(Cl)cc(Cl)c3)(C(F)(F)F)C2)ccc1C=NNC(=O)NCC(F)(F)F (stereo not drawn) [Compound 1-48]
at least 75%: all assays above

Reference: patent US8722673B2, “Imine compounds for combating invertebrate pests” (BASF SE, priority 2008, dated 2014)
